From patent US6748900B2, “Methods for growing and imprinting fish using an odorant” (MariCal, Inc., priority 2001, dated 2004)
“Also recorded” adds a separate entry of the source.

How the values were obtained:
[1] = tested on: olfactory epithelium of freshwater adapted juvenile salmon; experiment: Extracellular electrical potentials (EEG) from olfactory nerve after bolus stimuli to the olfactory epithelium in distilled water; type: in vivo, Atlantic salmon (Salmo salar); settings: for concentration dependence of olfactory nerve impulse: exposure of fish olfactory epithelium
Excerpt: The present invention provides methods for identifying and/or quantifying the effects of PVCR modulators on olfactory receptor sensing and visa versa. The present invention also includes methods for determining whether a compound is an odorant. When fish are exposed to an odorant (e.g., the odorant binds to olfactory lamellae), the odorant binds to the olfactory epithelium of the fish, which leads to the generation of a nerve impulse. The electric potential of the impulse can be measured using methods known in the art, or those later developed. One example of a method that can be used to measure electric potential is an electroencephalogram, commonly referred to as an EEG. Example 3 describes in detail how to measure nerve impulse of fish, and in particular, as it relates to modulation of the PVCR in the olfactory apparatus of the fish. Briefly, the fish are anaesthetized and placed in V-clamp apparatus where its gills were irrigated continuously with aerated seawater and its nasal lamellae bathed continuously by a stream of distilled water via a tube held in position in the inhalant olfactory opening. The olfactory nerves of the fish were exposed by removal of overlying bony structures. Odorants to be tested can be delivered as boluses to the olfactory epithelium via a 3 way valve where 1 cc of water containing the stimulus was rapidly injected into the tube containing a continuously stream of distilled water. […] The results can be analyzed by computer using compatible software.
(§1) Physiol. A 127:157-166 (1975), and Hubbard, PC, et al., Olfactory sensitivity to changes in environmental Ca2+ in the marine teleost Sparus Aurata, J. Exp. Biol. 203:3821-3829 (2000). After anaesthetizing the fish, it was placed in V-clamp apparatus where its gills were irrigated continuously with aerated seawater and its nasal lamellae bathed continuously by a stream of distilled water via a tube held in position in the inhalant olfactory opening. The olfactory nerves of the fish were exposed by removal of overlying bony structures. Stimuli were delivered as boluses to the olfactory epithelium via a 3 way valve where 1 cc of water containing the stimulus was rapidly injected into the tube containing a continuously stream of distilled water. […] Using this experimental approach, stable and reproducible recordings could be obtained for up to 6 hr after the initial surgery on the fish.
Similarly, exposure of olfactory epithelium to the PVCR agonist Gd^3+ produces responses of a similar magnitude to those evoked by Ca^2+ in a concentration range of 1-10 micromolar. […] These dose response curves (EC50 Gd^+3≦Ca^2+<Mg^2+) are similar to those obtained for PVCR modulated responses in other fish epithelium (flounder urinary bladder NaCl-mediated water transport-see SKCaR application).

[2] = tested on: nasal lamellae of Atlantic salmon; experiment: Olfactory response to stimuli alone or in combination with 500 mM NaCl (FIGS. 12B-12D); type: in vivo, Atlantic salmon (Salmo salar)
Method: Stimuli were delivered to the olfactory epithelium via a glass capillary tube placed in the inhalant olfactory opening. This tube was connected to a gravity fed tubing system allowing for switching from a background perfusion (charcoal filtered freshwater) to an experimental stimulus while maintaining a flow rate of 6-8 ml/min. Verification of the location of the stimulus delivery tubes and electrode was made by observing responses to a ‘search stimulus’ of […].
Stimuli consisted of CaR agonists (CaCl2, MgCl2, GdCl3, SrCl2 and NaCl (Sigma-Aldrich), control freshwater stimulus (charcoal filtered tap water) and control seawater stimuli (ASW, Ca-free ASW, Divalent free ASW). Stimuli were presented alone or in combination with 500 mM NaCl. Ringers and artificial seawater recipes were obtained from the Biological Bulletin Compendia (all concentrations are in mM) ASW (nAcl 423, KCl 9.0, CaCl2 22.94, MgSO4 25.50, NaHCO3 2.14, pH 8.0); Ca-free ASW (NaCl 436.71, KCl 9.0, MgCl2 22.94, MgSO4, 25.5, NaHCO3 2.14, pH 8.0); Divalent free ASW (NaCl 461.85, KCl 10.73, NAHCO3 2.14, Na2SO4 7.04, pH 8.0); FW Teleost Ringer's (NaCl 111.0, KCl 5.37, Cacl2 1.0, MgSO4, 0.6, HEPES 5.0, pH 7.3).

olfactory epithelium = experiment: Olfactory nerve recording: PVCR agonists added to a repellant (finger rinse) or an attractant (L-alanine); type: in vivo, Atlantic salmon (Salmo salar); settings: for effect on response of olfactory epithelium to mammalian finger rinse: FIG. 13
Excerpt: as §1
The ablation of responses to both the PVCR agonists as shown in FIG. 12A as well as mammalian finger rinse indicate that there are some complex interactions between PVCR proteins and other odorant receptors. It is also extremely unlikely that inclusion of PVCR agonists removed all the stimulatory components of mammalian finger rinse from solution such that they were not able to stimulate the epithelium.

[3] = tested on: shark kidney calcium receptor (SKCaR); experiment: FURA-2 ratio imaging fluorescence of HEK cells stably expressing SKCaR; type: cell-based, dogfish (Squalus acanthias); settings: 10 mM amino acid; for effect on SKCaR's response to a given Ca^2+ concentration: FIG. 16
Method: Full length recombinant dogfish (Squalus acanthias) shark kidney calcium receptor (SKCaR) was expressed in human embryonic kidney cells using methods described herein. The ability of SKCaR to respond to individual amino acids as well as various mixtures was quantified using FURA-2 ratio imaging fluorescence.
Baseline extracellular Ca^2+ concentration was 0.5 mM. Aliquots of Ca^2+ were added to produce final extracellular concentrations of 2.5 mM, 5 mM, 7.5 mM, 10 mM and 20 mM Ca^2+ with changes in the fluorescence recorded. Note that increases in cell fluorescence were greater in the presence of 10 mM Phe for extracellular Ca^2+ concentrations less than 10 mM.

[4] = 1 mM agonist with 500 mM NaCl, FIG. 12D
[5] = 500 micromolar stimulus, FIG. 11

## [Ca+2] [Ca^2+, calcium]
[1]; 1 mM stimulus, FIG. 11
  olfactory nerve response (EEG activity): responses in EEG activity
[1]; 1 mM stimulus, FIG. 11, listed as calcium
  olfactory nerve response (EEG activity): existence of an olfactory recording
[1]; FIG. 12A, responses normalized to 10 mM Ca^2+, multiple fish, read-out: half maximal excitatory response (EC50)
  EC50: 1 to 10 µM
[1]
  concentration dependence of olfactory nerve impulse: concentration-dependent olfactory nerve impulse
[2]; [4]
  effect on olfactory response to 500 mM NaCl: significantly reduce the olfactory response
[2]; 10 mM in 500 mM NaCl, FIG. 12C
  olfactory response in a 500 mM NaCl solution: identical to that produced by artificial seawater (ASW) exposure
[2]; FIG. 12C, various concentrations in 500 mM NaCl
  effect on olfactory response produced by 500 mM NaCl: reduces the olfactory response
Olfactory epithelium; 5 mM added, FIG. 14 recording #2
  effect on olfactory nerve response to 500 micromolar L-alanine: complete loss of the corresponding response
Olfactory epithelium; 5 mM agonist included
  effect on response of olfactory epithelium to mammalian finger rinse: reversibly ablated the response
Olfactory epithelium; after 5 mM, FIG. 14 recording #3
  response to subsequent identical L-alanine stimulus without the agonist: return of the signal

## [Gd+3] [Gd^3+, gadolinium]
[1]; 50 micromolar stimulus, FIG. 11, listed as Gadolinium
  olfactory nerve response: existence of an olfactory recording
[1]; 50 micromolar stimulus, FIG. 11, listed as gadolinium
  olfactory nerve response: obtained a response
[1]; FIG. 12A
  concentration range producing responses of a similar magnitude to those evoked by Ca^2+: 1 to 10 µM
[1]
  concentration dependence of olfactory nerve impulse: concentration-dependent olfactory nerve impulse
[2]; 50 micromolar agonist with 500 mM NaCl, FIG. 12D
  effect on olfactory response to 500 mM NaCl: significantly reduce the olfactory response
Olfactory epithelium; 50 micromolar added, FIG. 14 recording #7
  effect on olfactory nerve response to 500 micromolar L-alanine: complete loss of the corresponding response
Olfactory epithelium; 50 micromolar agonist included
  effect on response of olfactory epithelium to mammalian finger rinse: reversibly ablated the response
Olfactory epithelium; 50 micromolar agonist included, listed as gadolinium
  effect on response of olfactory epithelium to mammalian finger rinse: reversibly altered
Olfactory epithelium; after 50 micromolar, FIG. 14 recording #8 vs #6
  response to subsequent identical L-alanine stimulus without the agonist: return of the signal; also recorded: decreased as compared to control

## CC[C@H](C)[C@H](N)C(=O)O [Ile, L-Isoleucine]
[3]
  effect on SKCaR's response to a given Ca^2+ concentration: increase SKCaR's response

## C[C@H](N)C(=O)O [L-alanine]
[1]; [5]
  duration of olfactory nerve response: approximately 2 seconds
  olfactory nerve response: large increases in both the firing frequency and amplitude; also recorded: existence of an olfactory recording

## [Mg+2] [Mg^2+, magnesium]
[1]; FIG. 12A
  concentration at which olfactory epithelium responses first occur: 10 to 100 µM
[1]
  concentration dependence of olfactory nerve impulse: concentration-dependent olfactory nerve impulse
[2]; [4]
  effect on olfactory response to 500 mM NaCl: significantly reduce the olfactory response

## [Cl-].[Na+] [NaCl, sodium chloride]
[1]; 250 mM stimulus, FIG. 11
  olfactory nerve response (EEG activity): responses in EEG activity; also recorded: existence of an olfactory recording
[1]; FIG. 12A
  concentration until which olfactory epithelium is unresponsive: 250 millimolar
[2]; 500 mM alone, FIG. 12D
  olfactory response to irrigation of the nasal lamellae: large response
Olfactory epithelium; after 250 mM, FIG. 14 recordings #5 and #10
  response to subsequent L-Alanine alone: enhanced response to L-Alanine alone

## N[C@@H](Cc1ccccc1)C(=O)O [Phe, L-Phenylalanine]
[3]
  effect on SKCaR's response to a given Ca^2+ concentration: increase SKCaR's response
[3]; extracellular Ca^2+ less than 10 mM, FIG. 15
  increases in cell fluorescence on addition of extracellular Ca^2+: greater

## [Sr+2] [Sr2+, strontium]
[2]; [4]
  effect on olfactory response to 500 mM NaCl: significantly reduce the olfactory response

## neomycin
[1]
  concentration dependence of olfactory nerve impulse: concentration-dependent olfactory nerve impulse
